Test results taken from patent US20170198006A1, “PRMT5 INHIBITORS AND USES THEREOF” (Epizyme, Inc., priority 2014, published 2017).

target: T1, PRMT5/MEP50 (Homo sapiens, UniProt O14744); assay: PRMT5 Biochemical Assay (PRMT5/MEP50 enzyme assay on histone H4 peptide substrate, 3H-SAM Flashplate); conditions: PRMT5 biochemical assay; read-out: Biochemical IC50
T1 construct: Flag-PRMT5; made in house; host or cells: Spodoptera frugiperda (SF9), baculovirus
Source text: S-adenosylmethionine (SAM), S-adenosylhomocysteine (SAH), bicine, KCl, Tween20, dimethylsulfoxide (DMSO), bovine skin gelatin (BSG), and Tris(2-carboxyethyl)phosphine hydrochloride solution (TCEP) were purchased from Sigma-Aldrich at the highest level of purity possible. ^3H-SAM was purchase from American Radiolabeled Chemicals with a specific activity of 80 Ci/mmol. 384-well streptavidin Flashplates were purchased from PerkinElmer.
Peptide representative of human histone H4 residues 1-15 was synthesized with a C-terminal linker-affinity tag motif and a C-terminal amide cap by 21st Century Biochemicals.
The amplified genes were sublconed into pENTR/D/TEV (Life Technologies) and subsequently transferred by Gateway™ attL×attR recombination to pDEST8 baculvirus expression vector (Life Technologies).
Protein over-expression was accomplished by infecting exponentially growing Spodoptera frugiperda (SF9) cell culture at 1.2×10^6 cell/ml with a 5000 fold dilution of BIIC stock. Infections were carried out at 27° C. for 72 hours, harvested by centrifugation, and stored at −80° C. for purification.
Flag-PRMT5/6His-MeP50 was eluted with 300 mM Imidazole in the same buffer.
General Procedure for PRMT5/MEP50 Enzyme Assays on Peptide Substrates.
The assays were all performed in a buffer consisting of 20 mM Bicine (pH=7.6), 1 mM TCEP, 0.005% BSG, and 0.002% Tween20, prepared on the day of use. […] DMSO (1 ul) was added to Columns 11, 12, 23, 24, rows A-H for the maximum signal control and 1 ul of SAH, a known product and inhibitor of PRMT5/MEP50, was added to columns 11, 12, 23, 24, rows I-P for the minimum signal control. A cocktail (40 ul) containing the PRMT5/MEP50 enzyme and the peptide was added by Multidrop Combi (Thermo-Fisher). The compounds were allowed to incubate with PRMT5/MEP50 for 30 min at 25 degrees Celsius, then a cocktail (10 ul) containing ^3H-SAM was added to initiate the reaction (final volume=51 ul). […] The assays were stopped by the addition of non-radioactive SAM (10 ul) to a final concentration of 600 uM, which dilutes the ^3H-SAM to a level where its incorporation into the peptide substrate is no longer detectable. 50 ul of the reaction in the 384-well polypropylene plate was then transferred to a 384-well Flashplate and the biotinylated peptides were allowed to bind to the streptavidin surface for at least 1 hour before being washed three times with 0.1% Tween20 in a Biotek ELx405 plate washer. The plates were then read in a PerkinElmer TopCount plate reader to measure the quantity of ^3H-labeled peptide bound to the Flashplate surface, measured as disintegrations per minute (dpm) or alternatively, referred to as counts per minute (cpm).
Where dpm=disintegrations per minute, cmpd=signal in assay well, and min and max are the respective minimum and maximum signal controls.
Where top and bottom are the normally allowed to float, but may be fixed at 100 or 0 respectively in a 3-parameter fit. The Hill Coefficient normally allowed to float but may also be fixed at 1 in a 3-parameter fit. Y is the % inhibition and X is the compound concentration.

T1 sequence (O14744 with tags, fused parts or gaps): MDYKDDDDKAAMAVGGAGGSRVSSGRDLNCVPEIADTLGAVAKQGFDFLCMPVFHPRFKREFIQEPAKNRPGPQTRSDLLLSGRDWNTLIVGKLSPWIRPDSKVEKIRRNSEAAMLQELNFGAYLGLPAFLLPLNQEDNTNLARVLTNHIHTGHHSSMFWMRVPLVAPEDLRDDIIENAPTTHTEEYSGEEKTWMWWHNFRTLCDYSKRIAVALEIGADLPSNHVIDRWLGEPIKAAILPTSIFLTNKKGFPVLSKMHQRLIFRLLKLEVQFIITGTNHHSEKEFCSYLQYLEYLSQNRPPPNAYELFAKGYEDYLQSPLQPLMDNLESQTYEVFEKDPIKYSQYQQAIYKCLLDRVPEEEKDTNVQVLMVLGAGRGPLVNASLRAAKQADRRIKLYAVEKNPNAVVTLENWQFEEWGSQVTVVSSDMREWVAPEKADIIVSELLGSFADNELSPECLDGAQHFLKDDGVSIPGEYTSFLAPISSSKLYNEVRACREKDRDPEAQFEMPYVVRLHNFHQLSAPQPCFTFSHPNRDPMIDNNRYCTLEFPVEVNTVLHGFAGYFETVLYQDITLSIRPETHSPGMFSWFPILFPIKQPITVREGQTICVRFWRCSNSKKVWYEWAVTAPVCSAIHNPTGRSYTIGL
T1 sequence (Q9BQA1 with tags, fused parts or gaps partner limits assumed): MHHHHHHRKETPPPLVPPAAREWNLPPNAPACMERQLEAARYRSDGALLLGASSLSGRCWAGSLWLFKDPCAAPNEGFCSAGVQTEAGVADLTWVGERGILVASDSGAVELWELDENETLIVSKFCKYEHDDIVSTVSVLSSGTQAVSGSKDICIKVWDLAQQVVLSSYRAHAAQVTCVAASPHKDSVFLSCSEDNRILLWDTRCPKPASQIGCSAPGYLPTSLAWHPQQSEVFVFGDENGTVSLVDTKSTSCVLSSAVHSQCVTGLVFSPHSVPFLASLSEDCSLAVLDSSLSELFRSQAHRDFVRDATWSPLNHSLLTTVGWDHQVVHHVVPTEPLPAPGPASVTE

CC(C)N(CCCN)C[C@H]1O[C@@H](n2cnc3c(N)ncnc32)[C@H](O)[C@@H]1O [Compound 25-1] and CN(CCN)C[C@H]1O[C@@H](n2cnc3c(N)ncnc32)[C@H](O)[C@@H]1O [Compound 27-1] fall in the same range of IC50: 101 to 1000 nM for the first, 101 to 1000 nM for the second.

First: CN(CCNCCOc1cccc(F)c1)C[C@H]1O[C@@H](n2cnc3c(N)ncnc32)[C@H](O)[C@@H]1O [Compound 73-1]
Second: CN(CCNCc1ccc(F)cc1)C[C@H]1O[C@@H](n2cnc3c(N)ncnc32)[C@H](O)[C@@H]1O [Compound 16-1]
The IC50 of the first is higher: 101 to 1000 nM for the first, under 100 nM for the second. The second is the more potent here.

First: Cc1ccc(NC(=O)CC2NC(N3CCN(C)CC3)=NC2=O)cc1 (centres unmarked) [Compound 4-14]
Second: Cc1ccc(C(=O)CC2NC(N3CCN(C)CC3)=NC2=O)cc1 (centres unmarked) [Compound 27-14]
The IC50 of the first is higher: 10000 to 50000 nM for the first, 1000 to 10000 nM for the second.

CN(CCO)CCN(C)C[C@H]1O[C@@H](n2cnc3c(N)ncnc32)[C@H](O)[C@@H]1O [Compound 46-1] and CN(C)CCN(C)C[C@H]1O[C@@H](n2cnc3c(N)ncnc32)[C@H](O)[C@@H]1O [Compound 37-1] fall in the same range of IC50: 101 to 1000 nM for the first, 101 to 1000 nM for the second.

First: COc1ccc(C(=O)CC2NC(N3CCN(c4ccccc4)CC3)=NC2=O)cc1 (centres unmarked) [Compound 38-14]
Second: COc1cccc(C(=O)CC2NC(N3CCN(c4ccccc4)CC3)=NC2=O)c1 (centres unmarked) [Compound 39-14]
The IC50 of the first is higher: 1000 to 10000 nM for the first, 101 to 1000 nM for the second.

First: O=C(CC1NC(N2CCN(c3ccccc3)CC2)=NC1=O)Nc1ccccc1Br (centres unmarked) [Compound 68-14]
Second: O=C(CC1NC(N2CCN(c3ccccc3)CC2)=NC1=O)Nc1ccccc1 (centres unmarked) [Compound 18-14]
The IC50 of the first is higher: 10000 to 50000 nM for the first, 1000 to 10000 nM for the second. The second is the more potent here.

Compared with Cc1ccc(C(=O)CC2NC(N(C)CCN(C)c3ccccc3)=NC2=O)cc1 (centres unmarked) [Compound 45-14], Cc1ccc(C(=O)CC2NC(N3Cc4ccccc4C3)=NC2=O)cc1 (centres unmarked) [Compound 36-14] is lower in IC50: 10000 to 50000 nM for the first, 1000 to 10000 nM for the second.

CN(CCN1CCC(Oc2ccccn2)CC1)C[C@H]1OC(n2cnc3c(N)ncnc32)[C@H](O)[C@@H]1O (some centres unmarked) [Compound 41-1] and CN(CCN1CCC(c2ccccc2)CC1)CC1OC(n2cnc3c(N)ncnc32)[C@H](O)[C@@H]1O (some centres unmarked) [Compound 43-1] fall in the same range of IC50: 101 to 1000 nM for the first, 101 to 1000 nM for the second.

CCSC[C@H]1O[C@@H](n2cnc3c(N)ncnc32)[C@H](O)[C@@H]1O [Compound 94-1] and Nc1ncnc2c1ncn2[C@@H]1O[C@H](CSCCCC(=O)O)[C@@H](O)[C@H]1O [Compound 95-1] fall in the same range of IC50: 101 to 1000 nM for the first, 101 to 1000 nM for the second.

Nc1ncnc2c1ncn2[C@@H]1O[C@H](CN(CCCC(=O)O)CCNCCc2ccc(Cl)cc2)[C@@H](O)[C@H]1O [Compound 80-1] and Nc1ncnc2c1ncn2[C@@H]1O[C@H](CN(CCCC(=O)OCc2ccccc2)CCNCCc2ccc(Cl)cc2)[C@@H](O)[C@H]1O [Compound 78-1] cannot be ordered by IC50: under 100 nM for the first, under 100 nM for the second.

N#Cc1ccc(C(=O)CC2NC(N3CCN(c4ccccc4)CC3)=NC2=O)cc1 (centres unmarked) [Compound 40-14] and N#Cc1cccc(C(=O)CC2NC(N3CCN(c4ccccc4)CC3)=NC2=O)c1 (centres unmarked) [Compound 46-14] fall in the same range of IC50: 1000 to 10000 nM for the first, 1000 to 10000 nM for the second.

CC(CN)N(C)C[C@H]1O[C@@H](n2cnc3c(N)ncnc32)[C@H](O)[C@@H]1O (some centres unmarked) [Compound 28-1] and NCCNC[C@H]1O[C@@H](n2cnc3c(N)ncnc32)[C@H](O)[C@@H]1O [Compound 29-1] fall in the same range of IC50: 101 to 1000 nM for the first, 101 to 1000 nM for the second.

CN(CCNCc1ccc(Cl)cc1Cl)C[C@H]1O[C@@H](n2cnc3c(N)ncnc32)[C@H](O)[C@@H]1O [Compound 7-1] and CN(CCNCc1ccc(Cl)cc1)C[C@H]1O[C@@H](n2cnc3c(N)ncnc32)[C@H](O)[C@@H]1O [Compound 8-1] fall in the same range of IC50: 101 to 1000 nM for the first, 101 to 1000 nM for the second.

First: CN(CCNC1CCCCC1)C[C@H]1O[C@@H](n2cnc3c(N)ncnc32)[C@H](O)[C@@H]1O [Compound 54-1]
Second: CC1CCN(CCN(C)C[C@H]2O[C@@H](n3cnc4c(N)ncnc43)[C@H](O)[C@@H]2O)CC1 [Compound 44-1]
The IC50 of the first is lower: under 100 nM for the first, 101 to 1000 nM for the second.

CN(CCNc1ccccc1)CC1O[C@@H](n2cnc3c(N)ncnc32)[C@H](O)[C@@H]1O (some centres unmarked) [Compound 57-1] and CN(CCNCCc1ccccc1Cl)C[C@H]1O[C@@H](n2cnc3c(N)ncnc32)[C@H](O)[C@@H]1O [Compound 60-1] cannot be ordered by IC50: under 100 nM for the first, under 100 nM for the second.

Compared with O=C(CC1NC(N2CCN(c3ccccc3)CC2)=NC1=O)Nc1cccc(Cl)c1Cl (centres unmarked) [Compound 51-14], O=C(CC1NC(N2CCN(c3ccccc3)CC2)=NC1=O)Nc1cccc(Cl)c1 (centres unmarked) [Compound 50-14] is lower in IC50: 10000 to 50000 nM for the first, 1000 to 10000 nM for the second. The second is the more potent here.

CC(CCCN(CCN)C[C@H]1O[C@@H](n2cnc3c(N)ncnc32)[C@H](O)[C@@H]1O)C(=O)O (some centres unmarked) [Compound 33-1] and NCCN(CCCC(=O)O)C[C@H]1O[C@@H](n2cnc3c(N)ncnc32)[C@H](O)[C@@H]1O [Compound 31-1] cannot be ordered by IC50: under 100 nM for the first, under 100 nM for the second.

O=C(CC1NC(N2CCN(c3ccccc3)CC2)=NC1=O)c1cccc(Cl)c1 (centres unmarked) [Compound 47-14] and O=C(CC1NC(N2CCN(c3ccccc3)CC2)=NC1=O)c1ccccc1 (centres unmarked) [Compound 37-14] fall in the same range of IC50: 101 to 1000 nM for the first, 101 to 1000 nM for the second.

First: COc1ccccc1C(=O)CC1NC(N2Cc3ccccc3C2)=NC1=O (centres unmarked) [Compound 71-14]
Second: COc1ccccc1C(=O)CC1NC(N2CCN(c3ccccc3)CC2)=NC1=O (centres unmarked) [Compound 3-6]
The IC50 of the first is higher: 1000 to 10000 nM for the first, 101 to 1000 nM for the second.

O=C(CC1NC(N2CCc3ccccc3C2)=NC1=O)Nc1ccc(Cl)cc1 (centres unmarked) [Compound 56-14] and O=C(CC1NC(N2CC=C(c3ccccc3)CC2)=NC1=O)Nc1ccc(Cl)cc1 (centres unmarked) [Compound 72-14] fall in the same range of IC50: 101 to 1000 nM for the first, 101 to 1000 nM for the second.

First: CCOC(=O)c1ccc(NC(=O)CC2NC(N3CCN(C)CC3)=NC2=O)cc1 (centres unmarked) [Compound 24-14]
Second: CCOC(=O)c1ccc(NC(=O)CC2NC(N3CCN(c4ccccn4)CC3)=NC2=O)cc1 (centres unmarked) [Compound 17-14]
The IC50 of the first is higher: 10000 to 50000 nM for the first, 1000 to 10000 nM for the second.

CNCCNC[C@H]1O[C@@H](n2cnc3c(N)ncnc32)[C@H](O)[C@@H]1O [Compound 64-1] and CN(CCC[C@@H](N)C(=O)O)C[C@H]1O[C@@H](n2cnc3c(N)ncnc32)[C@H](O)[C@@H]1O [Compound 32-1] fall in the same range of IC50: 101 to 1000 nM for the first, 101 to 1000 nM for the second.

CC(=O)Nc1ccc(NC(=O)CC2NC(N3CCN(c4ccccc4)CC3)=NC2=O)cc1 (centres unmarked) [Compound 10-14] and COc1cccc(NC(=O)CC2NC(N3CCN(c4ccccc4)CC3)=NC2=O)c1 (centres unmarked) [Compound 61-14] fall in the same range of IC50: 10000 to 50000 nM for the first, 10000 to 50000 nM for the second.

First: COc1cccc([C@H](C)NCCN(C)C[C@H]2O[C@@H](n3cnc4c(N)ncnc43)[C@H](O)[C@@H]2O)c1 [Compound 2-1]
Second: CN(CCNCCc1ccc(Cl)cc1)C[C@H]1O[C@@H](n2cnc3c(N)ncnc32)[C@H](O)[C@@H]1O [Compound 61-1]
The IC50 of the first is higher: 101 to 1000 nM for the first, under 100 nM for the second. The second is the more potent here.

CN(CCN(CCc1ccc(Cl)cc1)Cc1ccccc1)C[C@H]1O[C@@H](n2cnc3c(N)ncnc32)[C@H](O)[C@@H]1O [Compound 51-1] and CN(CCN(C)C[C@H]1O[C@@H](n2cnc3c(N)ncnc32)[C@H](O)[C@@H]1O)Cc1ccccc1Cl [Compound 6-1] fall in the same range of IC50: 101 to 1000 nM for the first, 101 to 1000 nM for the second.

First: Cc1ccc(C(=O)CC2NC(N3CCN(Cc4ccncc4)CC3)=NC2=O)cc1 (centres unmarked) [Compound 44-14]
Second: O=C(CC1NC(N2CCN(c3ccccc3)CC2)=NC1=O)NCC1CCOCC1 (centres unmarked) [Compound 70-14]
The IC50 of the first is lower: 1000 to 10000 nM for the first, 10000 to 50000 nM for the second. The first is the more potent here.

O=C(CC1NC(N2CCN(c3ccccc3)CC2)=NC1=O)NCC1CCCCC1 (centres unmarked) [Compound 53-14] showed an IC50 of 1000 to 10000 nM.
